This note sets out measurements from patent publication US12612360B2 (Sanofi, priority 2020, dated 2026).

SMILES strings stand for the structures.

The assay concerns the target T1, ERα (Homo sapiens, UniProt P03372).
T1 construct: host or cells: MCF7
T1 sequence (P03372 1-595): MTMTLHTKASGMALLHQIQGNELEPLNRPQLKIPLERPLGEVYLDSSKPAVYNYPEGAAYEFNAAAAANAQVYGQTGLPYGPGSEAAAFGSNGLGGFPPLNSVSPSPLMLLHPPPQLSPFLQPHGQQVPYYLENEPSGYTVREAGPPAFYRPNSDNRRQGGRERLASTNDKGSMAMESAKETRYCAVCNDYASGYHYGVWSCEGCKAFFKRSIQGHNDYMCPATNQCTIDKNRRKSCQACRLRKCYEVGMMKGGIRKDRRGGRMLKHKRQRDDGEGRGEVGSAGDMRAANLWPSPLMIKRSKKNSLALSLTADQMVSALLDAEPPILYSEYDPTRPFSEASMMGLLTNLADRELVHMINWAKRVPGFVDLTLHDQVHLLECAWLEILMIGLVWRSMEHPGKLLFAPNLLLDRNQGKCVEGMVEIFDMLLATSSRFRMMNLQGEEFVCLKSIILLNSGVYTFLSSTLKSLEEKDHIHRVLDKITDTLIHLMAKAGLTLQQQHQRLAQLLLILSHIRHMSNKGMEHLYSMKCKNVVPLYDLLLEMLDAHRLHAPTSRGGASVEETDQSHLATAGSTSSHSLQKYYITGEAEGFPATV
Description: Estrogen receptor degradation activity: breast cancer cell ERα in cell western assay (MCF7 cells). It is filed as cell-based. The following applies: for % Degradation At 0.3 μM: 4 hours, relative to fulvestrant 0.1 μM positive control; for DC50: 4 hours post compound addition, concentration which degrades 50% of the estrogen receptor, read-out: Degradation IC50. As for the experimental part:
Test: Estrogen Receptor Degradation Activity Said test involves measuring the in vitro degradation activity of the compounds of the Table 1a. The measurements of the degradation activities were made using a breast cancer cell ERα in cell western assay as described hereunder. MCF7 cells (ATCC) were seeded in 384 wells microplate (collagen coated) at a concentration of 10000 cells/30 μL per well in red phenol free MEM alpha medium (invitrogen) containing 5% charcoal dextran striped FBS. The following day, 9 points serial 1:5 dilution of each compound was added to the cells in 2.5 μL at final concentrations ranging from […] (in table 2), or 0.1 μM for fulvestrant (using as positive control). At 4 hours post compound addition the cells were fixed by adding 25 μL of formalin (final concentration 5% formalin containing 0.1% triton) for 10 minutes at room temperature and then washed twice with PBS. Then, 50 μL of LI-COR blocking buffer containing 0.1% Triton was added to plate for 30 minutes at room temperature. LI-COR blocking buffer was removed and cells were incubated overnight at cold room with 50 μL anti-ER rabbit monoclonal antibody (Thermo scientific MA1-39540) diluted at 1:1000 in LI-COR blocking buffer containing 0.1% tween-20. Wells which were treated with blocking buffer but no antibody were used as background control. Wells were washed twice with PBS (0.1% tween-20) and incubated at 37° C. for 60 minutes in LI-COR (0.1% tween-20) containing goat anti-rabbit antibody Alexa 488 (1:1000) and Syto-64 a DNA dye (2 μM final concentration). Cells were then washed 3 times in PBS and scanned in ACUMEN explorer (TTP-Labtech). Integrated intensities in the green fluorescence and red fluorescence were measured to determine the levels of ERα and DNA respectively. The degradation activity with respect to estrogen receptors in this test is given by the concentration which degrades 50% of the estrogen receptor (or IC50) in nM. […] DMSO−fulvestrant)).

Consider `CC1CCC(C2=C(c3ncc(C=C4CN(CCCF)C4)cc3F)c3ccc(C(=O)O)cc3CCC2)CC1` (mixture of isomers) [Example 188, 9-(3-fluoro-5-((1-(3-fluoropropyl)azetidin-3-ylidene)methyl)pyridin-2-yl)-8-(4-methylcyclohexyl)-6,7-dihydro-5H-benzo[7]annulene-3-carboxylic acid], for which the “% Degradation At 0.3 μM” value turned out to be 89% and the DC50 is 1800 pM.
For `CC1CCc2cc(C(=O)O)ccc2C(c2ccc(C=C3CN(CCCF)C3)cc2)=C1c1ccc(Cl)cc1Cl` (racemic) [Example 166, 8-(2,4-Dichlorophenyl)-9-(4-((1-(3-fluoropropyl)azetidin-3-ylidene)methyl)phenyl)-7-methyl-6,7-dihydro-5H-benzo[7]annulene-3-carboxylic acid, racemic mixture], in that order: 95% and 600 pM.
In the case of `O=C(O)c1ccc2c(c1)CCCC([C@H]1C[C@@H]1c1ccccc1)=C2c1ccc(C=C2CN(CCCF)C2)cc1` (racemic) [Example 173, 9-(4-((1-(3-fluoropropyl)azetidin-3-ylidene)methyl)phenyl)-8-((trans)-2-phenylcyclopropyl)-6,7-dihydro-5H-benzo[7]annulene-3-carboxylic acid], the “% Degradation At 0.3 μM” value was 90% and the DC50 turned out to be 700 pM.
For `CC1(C)CCCC(C2=C(c3ncc(C=C4CN(CCCF)C4)cc3F)c3ccc(C(=O)O)cc3CCC2)C1` (racemic) [Example 186, 8-(3,3-Dimethylcyclohexyl)-9-(3-fluoro-5-((1-(3-fluoropropyl)azetidin-3-ylidene)methyl)pyridin-2-yl)-6,7-dihydro-5H-benzo[7]annulene-3-carboxylic acid, racemic mixture], in that order: 92% and 1000 pM.
For `O=C(O)c1ccc2c(c1)CCCC([C@@H]1C[C@H]1C1CCC(F)(F)CC1)=C2c1ccc(C=C2CN(CCCF)C2)cc1` (racemic) [Example 187, 8-(trans-2-(4,4-difluorocyclohexyl)cyclopropyl)-9-(4-((1-(3-fluoropropyl)azetidin-3-ylidene)methyl)phenyl)-6,7-dihydro-5H-benzo[7]annulene-3-carboxylic acid], in that order: 86% and 1600 pM.
Taken in the same sequence, the figures for `CC1(C)CCCC(C2=C(c3ccc(C=C4CN(CCCF)C4)cc3)c3ccc(C(=O)O)cc3CCC2)C1` (single isomer, unassigned) [Example 171, 8-(3,3-dimethylcyclohexyl)-9-(4-((1-(3-fluoropropyl)azetidin-3-ylidene)methyl)phenyl)-6,7-dihydro-5H-benzo[7]annulene-3-carboxylic acid] were 88% and 400 pM.
As to `CC1(C)CCCC(C2=C(c3ccc(C=C4CN(CCCF)C4)cc3)c3ccc(C(=O)O)cc3CCC2)C1` (single isomer, unassigned) [Example 172, 8-(3,3-dimethylcyclohexyl)-9-(4-((1-(3-fluoropropyl)azetidin-3-ylidene)methyl)phenyl)-6,7-dihydro-5H-benzo[7]annulene-3-carboxylic acid], the “% Degradation At 0.3 μM” value was determined as 89% and the DC50 worked out at 400 pM.
For `CC1CCc2cc(C(=O)O)ccc2C(c2ccc(C=C3CN(CCCF)C3)cc2)=C1c1ccc(Cl)cc1` (single isomer, unassigned) [Example 179, 8-(4-chlorophenyl)-9-(4-((1-(3-fluoropropyl)azetidin-3-ylidene)methyl)phenyl)-7-methyl-6,7-dihydro-5H-benzo[7]annulene-3-carboxylic acid], in that order: 91% and 1400 pM.
`CC1CCc2cc(C(=O)O)ccc2C(c2ccc(C=C3CN(CCCF)C3)cc2)=C1c1ccc(Cl)cc1` (single isomer, unassigned) [Example 184, 8-(4-chlorophenyl)-9-(4-((1-(3-fluoropropyl)azetidin-3-ylidene)methyl)phenyl)-7-methyl-6,7-dihydro-5H-benzo[7]annulene-3-carboxylic acid]: the “% Degradation At 0.3 μM” value worked out at 90% and the DC50 worked out at 400 pM.
For `O=C(O)c1ccc2c(c1)CCCC(c1ccc(Cl)cc1Cl)=C2c1ccc(C=C2CN(CCCF)C2)cc1` [Example 1, 8-(2,4-Dichlorophenyl)-9-(4-((1-(3-fluoropropyl)azetidin-3-ylidene)methyl)phenyl)-6,7-dihydro-5H-benzo[7]annulene-3-carboxylic acid], in that order: 96% and 400 pM.
For `COc1nccc(C2=C(c3ccc(C=C4CN(CCCF)C4)cc3)c3ccc(C(=O)O)cc3CCC2)c1F` [Example 2, 8-(3-fluoro-2-methoxypyridin-4-yl)-9-(4-((1-(3-fluoropropyl)azetidin-3-ylidene)methyl)phenyl)-6,7-dihydro-5H-benzo[7]annulene-3-carboxylic acid], in that order: 92% and 600 pM.
Taken in the same sequence, the figures for `Cc1cc(C(F)(F)F)ccc1C1=C(c2ccc(C=C3CN(CCCF)C3)cc2)c2ccc(C(=O)O)cc2CCC1` [Example 3, 9-(4-((1-(3-fluoropropyl)azetidin-3-ylidene)methyl)phenyl)-8-(2-methyl-4-(trifluoromethyl)phenyl)-6,7-dihydro-5H-benzo[7]annulene-3-carboxylic acid] were 90% and 300 pM.
On to `O=C(O)c1ccc2c(c1)CCCC(c1cc(F)cc3c1CCC3)=C2c1ccc(C=C2CN(CCCF)C2)cc1` [Example 4, 8-(6-fluoro-2,3-dihydro-1H-inden-4-yl)-9-(4-((1-(3-fluoropropyl)azetidin-3-ylidene)methyl)phenyl)-6,7-dihydro-5H-benzo[7]annulene-3-carboxylic acid], for which the “% Degradation At 0.3 μM” value came out at 86% and the DC50 came out at 800 pM.
Taken in the same sequence, the figures for `O=C(O)c1ccc2c(c1)CCCC(c1ccc(Cl)c(C(F)(F)F)c1)=C2c1ccc(C=C2CN(CCCF)C2)cc1` [Example 5, 8-(4-chloro-3-(trifluoromethyl)phenyl)-9-(4-((1-(3-fluoropropyl)azetidin-3-ylidene)methyl)phenyl)-6,7-dihydro-5H-benzo[7]annulene-3-carboxylic acid] were 88% and 1000 pM.
Taken in the same sequence, the figures for `O=C(O)c1ccc2c(c1)CCCC(c1c(F)ccc3c1CCC3)=C2c1ccc(C=C2CN(CCCF)C2)cc1` [Example 6, 8-(5-fluoro-2,3-dihydro-1H-inden-4-yl)-9-(4-((1-(3-fluoropropyl)azetidin-3-ylidene)methyl)phenyl)-6,7-dihydro-5H-benzo[7]annulene-3-carboxylic acid] were 92% and 400 pM.
Regarding `O=C(O)c1ccc2c(c1)CCCC(c1ccc3c(c1F)CCC3)=C2c1ccc(C=C2CN(CCCF)C2)cc1` [Example 7, 8-(4-fluoro-2,3-dihydro-1H-inden-5-yl)-9-(4-((1-(3-fluoropropyl)azetidin-3-ylidene)methyl)phenyl)-6,7-dihydro-5H-benzo[7]annulene-3-carboxylic acid], the “% Degradation At 0.3 μM” value was determined as 90% and the DC50 was 600 pM.
